US9035059B2, “Nitrogen-containing condensed heterocyclic compound” (TAISHO PHARMACEUTICAL CO., LTD., priority 2011, dated 2015)

Target: MGAT2 (microsomal fraction of human small intestine) (Homo sapiens (Human), UniProt Q3SYC2)
Assay: Test Example 2: Test of MGAT2 inhibitory action (microsomal fraction of human small intestine, 3H-labeled 2-monooleoyl glycerol)
Format: biochemical
Conditions: microsomal fraction of human small intestine 5 μg/ml; 4 μM oleoyl-CoA, 1.25 μM 2-monooleoyl glycerol, 0.125 μM 3H-labeled 2-monooleoyl glycerol; room temperature 30 min; read-out: Activity Value [nM] (IC50, concentration at which 50% of the products 3H-labeled dioleoyl glycerol and trioleoyl glycerol was inhibited)
Description: An MGAT2 inhibition test for test compounds was conducted in accordance with a partially modified version of the method described in John F. Lockwood et al., Am. J. Physiol. Endocrinol. Metab., 2003, 285, E927.
A 10 mg/mL microsomal fraction of human small intestine (duodenum- and jejunum-derived fraction purchased from Becton Dickinson Japan) was used as an enzyme source.
The test was conducted using a flat-bottom 96-well plate (Corning).
A buffer solution with final concentrations of 5 mM magnesium chloride, 1.25 mg/ml bovine serum albumin and 100 mM Tris-HCl (pH=7.5) was prepared and the microsomal fraction of human small intestine was added thereto to give a final concentration of 5 μg/ml. […] Thereafter, final concentrations of 5 mM magnesium chloride, 1.25 mg/ml bovine serum albumin, 100 mM Tris-HCl (pH=7.5), 4 μM oleoyl-CoA, 1.25 μM 2-monooleoyl glycerol and 0.125 μM ^3H-labeled 2-monooleoyl glycerol (Muromachi Yakuhin Co., Ltd.) were added thereto to give a total volume of 100 μl. This mixture was reacted at room temperature for 30 min.
The reaction was stopped by adding an equal amount of isopropanol to the reaction mixture. The substrate contained in the reaction mixture (^3H-labeled 2-monooleoyl glycerol) and the reaction products (^3H-labeled dioleoyl glycerol and trioleoyl glycerol) were separated by adsorbing them onto an octadecylsilane resin (Wako gel 50C18) (Wako Pure Chemical Industries, Ltd.), removing the substrate by use of 80% isopropanol, and then eluting the reaction products with 100% isopropanol. The amounts of the reaction products were measured with MicroBeta (PerkinElmer Japan).

Sequence of MGAT2 (microsomal fraction of human small intestine) (Q3SYC2 whole entry): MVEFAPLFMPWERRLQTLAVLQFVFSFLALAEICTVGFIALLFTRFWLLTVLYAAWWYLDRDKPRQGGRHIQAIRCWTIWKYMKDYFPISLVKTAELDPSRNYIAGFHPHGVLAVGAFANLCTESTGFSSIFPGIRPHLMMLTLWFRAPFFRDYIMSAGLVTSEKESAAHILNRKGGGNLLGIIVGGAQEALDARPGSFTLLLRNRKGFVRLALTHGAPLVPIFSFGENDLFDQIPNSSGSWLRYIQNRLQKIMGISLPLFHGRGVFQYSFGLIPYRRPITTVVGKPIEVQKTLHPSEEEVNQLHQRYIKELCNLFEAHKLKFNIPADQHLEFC

SMILES | IC50 [nM]
CC(C)(C)c1ccc(CCN2CCc3cc(S(=O)(=O)Nc4ccc(OCCCOCC(F)(F)F)cc4F)ccc3C2)cc1 [Working Example 8-12] | 158
CC(C)(C)c1ccc(CCN2CCc3cc(S(=O)(=O)Nc4ccc(OCC[C@H]5CCOC[C@@H]5F)cc4F)ccc3C2)cc1 [Working Example 8-15] | 204
CC(C)(C)c1ccc(CC(C)(C)N2CCc3cc(S(=O)(=O)Nc4ccc(OCCC5CCOCC5)cc4F)ccc3C2)cc1 [20-3] | 223
O=S(=O)(Nc1ccc(OCCC2CCOCC2)cc1F)c1ccc2c(c1)CCN(Cc1cnc(C(F)(F)F)nc1)C2 [Working Example 6-83] | 193
CC(C)(C)c1ccc(CC(C)(C)N2CCc3cc(S(=O)(=O)Nc4ccc(CCCC5CCCC5)cc4F)ccc3C2)cc1 [20-2] | 14
O=S(=O)(Nc1ccc(CCCC2CCCC2)cc1F)c1ccc2c(c1)CCN(Cc1cnn(CC3CC3)c1)C2 [Working Example 2-7] | 234
CC(C)(C)c1ccc(C2(N3CCc4cc(S(=O)(=O)Nc5ccc(CCCC6CCCC6)cc5F)ccc4C3)CC2)cn1 [25-2] | 60
C[C@@H](c1ccc(C(C)(C)C)nc1)N1CCc2cc(S(=O)(=O)Nc3ccc(CCCC4CCCC4)cc3F)ccc2C1 [24-2, 2-[(1S)-1-(6-tert-butylpyridin-3-yl)ethyl]-N-[4-(3-cyclopentylpropyl)-2-fluorophenyl]-1,2,3,4-tetrahydroisoquinoline-6-sulfonamide] | 29
CCCn1cc(CN2CCc3cc(S(=O)(=O)Nc4ccc(CCCC5CCCC5)cc4F)ccc3C2)cn1 [Working Example 2-8] | 213
CC(C)(C)c1ccc(CCN2CCc3cc(S(=O)(=O)Nc4ccc(OCCOCC5CCCCO5)cc4F)ccc3C2)cc1 (centres unmarked) [Working Example 8-8] | 178
O=S(=O)(Nc1ccc(CCCC2CCCC2)cc1F)c1ccc2c(c1)CCN(CCc1ccc(C(F)(F)F)cn1)C2 [Working Example 9-24] | 46
Cc1cc(CN2CCc3cc(S(=O)(=O)Nc4ccc(CCCC5CCCC5)cc4F)ccc3C2)c(C)n1-c1cccc(C(F)(F)F)c1 [Working Example 7-81] | 45
CC(C)(C)n1cc(CCN2CCc3cc(S(=O)(=O)Nc4ccc(CCCC5CCCC5)cc4F)ccc3C2)cn1 [Working Example 7-91] | 140
CC(C)(C)c1ccc(CCN2CCc3cc(S(=O)(=O)Nc4ccc(OCCC5CCCC5)cc4F)ccc3C2)cc1 [Working Example 8-5] | 29

Continued, values first:

IC50 [nM] | SMILES
164 | CC(C)(C)c1cc(CCN2CCc3cc(S(=O)(=O)Nc4ccc(CCCC5CCCC5)cc4F)ccc3C2)ccn1 [Working Example 6-90]
185 | CC(c1ccc(C(F)(F)F)nc1)N1CCc2cc(S(=O)(=O)Nc3ccc(CCCC4CCCC4)cc3F)ccc2C1 (single isomer, unassigned) [24-4]
105 | O=S(=O)(Nc1ccc(CCCC2CCCC2)cc1F)c1ccc2c(c1)CCN(Cc1cnc(-c3ccc(Cl)cc3)s1)C2 [Working Example 7-74]
57 | Cc1nn(-c2ccccc2)c(C)c1CN1CCc2cc(S(=O)(=O)Nc3ccc(CCCC4CCCC4)cc3F)ccc2C1 [Working Example 7-71]
180 | CC(C)n1cc(CN2CCc3cc(S(=O)(=O)Nc4ccc(CCCC5CCCC5)cc4F)ccc3C2)cn1 [Working Example 2-5]
118 | Cc1nc(-c2ccccc2)sc1CN1CCc2cc(S(=O)(=O)Nc3ccc(CCCC4CCCC4)cc3F)ccc2C1 [Working Example 7-65]
68 | CC(C)(C)c1ccc(CCN2CCc3cc(S(=O)(=O)Nc4ccc(OCCCOC5CCCC5)cc4F)ccc3C2)cc1 [Working Example 8-14]
145 | Cc1cc(CN2CCc3cc(S(=O)(=O)Nc4ccc(CCCC5CCCC5)cc4F)ccc3C2)c(C)n1-c1ccncc1 [Working Example 7-88]
198 | CC(C)(C)n1cc(CN2CCc3cc(S(=O)(=O)Nc4ccc(OCCC5CCOCC5)cc4F)ccc3C2)cn1 [Working Example 2-10]
34 | CC(c1cnc(C(C)(C)C)nc1)N1CCc2cc(S(=O)(=O)Nc3ccc(CCCC4CCCC4)cc3F)ccc2C1 (single isomer, unassigned) [24-8]
46 | CC(C)(C)c1cnc(CCN2CCc3cc(S(=O)(=O)Nc4ccc(CCCC5CCCC5)cc4F)ccc3C2)cn1 [Working Example 9-23]
35 | CC(C)(C)c1ccc(CCN2CCc3cc(S(=O)(=O)Nc4ccc(OCCCS(=O)(=O)c5ccccc5)cc4F)ccc3C2)cc1 [Working Example 8-6]
